Laboratory results from patent publication US6737383B1, “Herbicidal oxadiazolidines” (priority 1999, dated 2004).

How the values were obtained:
bamyardgrass = assay: Test B flood test barnyardgrass; format: in vivo, Echinochloa crus-galli
Description: (§1) At the same time, these crop and weed species were also treated with postemergence applications of test chemicals formulated in the same manner. Plants ranged in height from 2 to 18 cm (1- to 4-leaf stage) for postemergence treatments. Plant species in the flood test consisted of rice (Oryza sativa), smallflower flatsedge (Cyperus difformis), duck salad (Heteranthera limosa) and bamyardgrass (Echinochloa crus-galli) grown to the 2-leaf stage for testing. Treated plants and controls were maintained in a greenhouse for twelve to sixteen days, after which all species were compared to controls and visually evaluated. Plant response ratings, summarized in Table B, are based on a scale of 0 to 10 where 0 is no effect and 10 is complete control. A dash (−) response means no test result.

rice = assay: Test B flood test rice; format: in vivo, Oryza sativa
Description: as §1

duck salad = assay: Test B flood test duck salad; format: in vivo, Heteranthera limosa
Description: as §1

smallflower flatsedge = assay: Test B flood test smallflower flatsedge; format: in vivo, Cyperus difformis
Description: as §1

pigweed = assay: Test B pre/postemergence pigweed; format: in vivo, Amaranthus retroflexus
How it was run: (§2)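 Response is a visual 0-to-10 score relative to untreated plants, where 0 means no effect and 10 means complete control, taken twelve to sixteen days after application. Treatments went onto soil at planting and onto foliage of 1- to 4-leaf plants, using a surfactant-containing non-phytotoxic solvent.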

rape = assay: Test B pre/postemergence rape; format: in vivo, Brassica napus
How it was run: as §2

corn = assay: Test B pre/postemergence corn; format: in vivo, Zea mays
How it was run: as §2

sugar beet = assay: Test B pre/postemergence sugar beet; format: in vivo, Beta vulgaris; conditions: for Plant response rating, Sugarbeets: Rate 250 g/ha
How it was run: as §2

morningglory = assay: Test B pre/postemergence morningglory; format: in vivo, Ipomoea hederacea
How it was run: as §2

soybean = assay: Test B pre/postemergence soybean; format: in vivo, Glycine max
How it was run: as §2

wild oat = assay: Test B pre/postemergence wild oat; format: in vivo, Avena fatua; conditions: for Plant response rating, Wild oats: Rate 250 g/ha
How it was run: as §2

wheat = assay: Test B pre/postemergence wheat; format: in vivo, Triticum aestivum; conditions: for Plant response rating, Wheat: Rate 250 g/ha
How it was run: as §2

bedstraw = assay: Test B pre/postemergence bedstraw; format: in vivo, Galium aparine
How it was run: as §2

crabgrass = assay: Test B pre/postemergence crabgrass; format: in vivo, Digitaria sanguinalis
How it was run: as §2

velvetleaf = assay: Test B pre/postemergence velvetleaf; format: in vivo, Abutilon theophrasti; conditions: for Plant response rating, Velvetleaf: Rate 250 g/ha
How it was run: as §2

blackgrass = assay: Test B pre/postemergence blackgrass; format: in vivo, Alopecurus myosuroides
How it was run: as §2

surinam grass = assay: Test B pre/postemergence surinam grass; format: in vivo, Brachiaria decumbens
How it was run: as §2

cocklebur = assay: Test B pre/postemergence cocklebur; format: in vivo, Xanthium strumarium
How it was run: as §2

giant foxtail = assay: Test B pre/postemergence giant foxtail; format: in vivo, Setaria faberii
How it was run: as §2

purple nutsedge = assay: Test B pre/postemergence purple nutsedge; format: in vivo, Cyperus rotundus
How it was run: as §2

[1] = Rate 62 g/ha, flood test species, Pre-emergence, visual evaluation after twelve to sixteen days
[2] = Rate 125 g/ha, Pre-emergence section (flood test species), scale 0 to 10, 0 no effect, 10 complete control
[3] = Rate 250 g/ha, Pre-emergence (flood test species), scale 0 to 10, 0 is no effect, 10 is complete control
[4] = Rate 500 g/ha, Pre-emergence section of Table B, 0 to 10 scale (0 no effect, 10 complete control)
[5] = Postemergence, Rate 125 g/ha, scale of 0 to 10 where 0 is no effect and 10 is complete control
[6] = Preemergence, Rate 62 g/ha, scale 0 to 10 (0 no effect, 10 complete control)
[7] = Preemergence, Rate 125 g/ha, scale 0 to 10 (0 no effect, 10 complete control)
[8] = Preemergence, Rate 250 g/ha, scale of 0 to 10 where 0 is no effect and 10 is complete control
[9] = Preemergence, Rate 500 g/ha, scale 0 to 10 (0 no effect, 10 complete control)
[10] = Rate 62 g/ha, Postemergence, scale of 0 to 10 where 0 is no effect and 10 is complete control
[11] = Rate 250 g/ha, Postemergence, scale 0 to 10, 0 is no effect, 10 is complete control
[12] = Rate 500 g/ha, Postemergence, scale 0 to 10, 0 no effect, 10 complete control
[13] = Postemergence, Rate 250 g/ha, scale 0 to 10, 0 no effect, 10 complete control
[14] = Preemergence, Rate 125 g/ha, 0 is no effect, 10 is complete control
[15] = Preemergence, scale of 0 to 10 where 0 is no effect and 10 is complete control
[16] = Postemergence, scale 0 to 10, 0 is no effect, 10 is complete control

CC(C)N(C(=O)n1oc(=O)n(C(C)C(=O)N2CCOCC2)c1=O)c1ccc(F)cc1 (centres unmarked) [Compound 705]
1: Rice plant response rating (rice; [2])
2: Barnyardgrass plant response rating (bamyardgrass; [3]) | Barnyardgrass plant response rating (bamyardgrass; [4]) | Rice plant response rating (rice; [3]) | Rice plant response rating (rice; [4])
0: Plant response rating, Barnyardgrass (0 to 10 scale, 0 is no effect, 10 is complete control) (bamyardgrass; [1]) | Barnyardgrass plant response rating (bamyardgrass; [2]) | Plant response rating, Rice (0 to 10 scale, 0 is no effect, 10 is complete control) (rice; [1]) | Plant response rating, Ducksalad (0 to 10 scale, 0 is no effect, 10 is complete control) (duck salad; [1]) | Ducksalad plant response rating (duck salad; [2]) | Ducksalad plant response rating (duck salad; [3]) | Ducksalad plant response rating (duck salad; [4]) | Plant response rating, S. Flatsedge (0 to 10 scale, 0 is no effect, 10 is complete control) (smallflower flatsedge; [1]) | S. Flatsedge plant response rating (smallflower flatsedge; [2]) | S. Flatsedge plant response rating (smallflower flatsedge; [3]) | S. Flatsedge plant response rating (smallflower flatsedge; [4])

COc1ccccc1Cn1c(=O)on(C(=O)N(c2ccccc2)C(C)C)c1=O [Compound 104]
10: Morningglory plant response rating (morningglory; [5]) | Morningglory plant response rating (morningglory; [13]) | Morningglory plant response rating (morningglory; [10]) | Morningglory plant response rating (morningglory; [12]) | Plant response rating, Giant foxtail (giant foxtail; [8]) | Giant foxtail plant response rating (giant foxtail; [9])
4: Redroot pigweed plant response rating (pigweed; [9]) | Soybean plant response rating (soybean; [10]) | Plant response rating, Wild oats (wild oat; [15]) | Wheat plant response rating (wheat; [9]) | Crabgrass plant response rating (crabgrass; [5]) | Giant foxtail plant response rating (giant foxtail; [13]) | Plant response rating, Giant foxtail (giant foxtail; [7])
0: Redroot pigweed plant response rating (pigweed; [6]) | Plant response rating, Redroot pigweed (pigweed; [7]) | Plant response rating, Redroot pigweed (pigweed; [8]) | Rape plant response rating (rape; [5]) | Rape plant response rating (rape; [13]) | Rape plant response rating (rape; [6]) | Plant response rating, Rape (rape; [7]) | Plant response rating, Rape (rape; [8]) | Rape plant response rating (rape; [9]) | Rape plant response rating (rape; [10]) | Corn plant response rating (corn; [5]) | Corn plant response rating (corn; [13]) | Corn plant response rating (corn; [6]) | Plant response rating, Corn (corn; [7]) | Plant response rating, Corn (corn; [8]) | Corn plant response rating (corn; [10]) | Corn plant response rating (corn; [12]) | Sugarbeets plant response rating (sugar beet; [6]) | Sugarbeets plant response rating (0 to 10 scale) (sugar beet; [14]) | Sugarbeets plant response rating (sugar beet; [10]) | Morningglory plant response rating (morningglory; [6]) | Plant response rating, Morningglory (morningglory; [7]) | Plant response rating, Morningglory (morningglory; [8]) | Morningglory plant response rating (morningglory; [9]) | Soybean plant response rating (soybean; [6]) | Plant response rating, Soybean (soybean; [7]) | Plant response rating, Soybean (soybean; [8]) | Soybean plant response rating (soybean; [9]) | Wild oats plant response rating (wild oat; [5]) | Wild oats plant response rating (wild oat; [6]) | Wild oats plant response rating (wild oat; [10]) | Plant response rating, Wild oats (wild oat; [16]) | Wheat plant response rating (wheat; [5]) | Wheat plant response rating (wheat; [6]) | Wheat plant response rating (0 to 10 scale) (wheat; [14]) | Plant response rating, Wheat (wheat; [15]) | Wheat plant response rating (wheat; [10]) | Plant response rating, Wheat (wheat; [16]) | Wheat plant response rating (wheat; [12]) | Bedstraw plant response rating (bedstraw; [6]) | Plant response rating, Bedstraw (bedstraw; [7]) | Plant response rating, Bedstraw (bedstraw; [8]) | Bedstraw plant response rating (bedstraw; [9]) | Crabgrass plant response rating (crabgrass; [6]) | Plant response rating, Crabgrass (crabgrass; [7]) | Crabgrass plant response rating (crabgrass; [10]) | Velvetleaf plant response rating (velvetleaf; [5]) | Velvetleaf plant response rating (velvetleaf; [6]) | Velvetleaf plant response rating (0 to 10 scale) (velvetleaf; [14]) | Plant response rating, Velvetleaf (velvetleaf; [15]) | Velvetleaf plant response rating (velvetleaf; [9]) | Velvetleaf plant response rating (velvetleaf; [10]) | Blackgrass plant response rating (blackgrass; [5]) | Blackgrass plant response rating (blackgrass; [6]) | Blackgrass plant response rating (blackgrass; [10]) | B. signalgrass plant response rating (surinam grass; Postemergence, Rate 62 g/ha, scale 0 to 10, 0 is no effect, 10 is complete control) | B. signalgrass plant response rating (surinam grass; [13]) | B. signalgrass plant response rating (surinam grass; [6]) | Plant response rating, B. signalgrass (surinam grass; [7]) | B. signalgrass plant response rating (surinam grass; Rate 125 g/ha, Postemergence, scale 0 to 10, 0 no effect, 10 complete control) | B. signalgrass plant response rating (surinam grass; Rate 500 g/ha, Postemergence, scale of 0 to 10 where 0 is no effect and 10 is complete control) | Cocklebur plant response rating (cocklebur; [5]) | Plant response rating, Cocklebur (cocklebur; [7]) | Plant response rating, Cocklebur (cocklebur; [8]) | Cocklebur plant response rating (cocklebur; [9]) | Cocklebur plant response rating (cocklebur; [10]) | Giant foxtail plant response rating (giant foxtail; [6]) | Nutsedge plant response rating (purple nutsedge; [5]) | Nutsedge plant response rating (purple nutsedge; [13]) | Nutsedge plant response rating (purple nutsedge; [6]) | Plant response rating, Nutsedge (purple nutsedge; [7]) | Plant response rating, Nutsedge (purple nutsedge; [8]) | Nutsedge plant response rating (purple nutsedge; [9]) | Nutsedge plant response rating (purple nutsedge; [10]) | Nutsedge plant response rating (purple nutsedge; [12])
9: Crabgrass plant response rating (crabgrass; [9])
8: Crabgrass plant response rating (crabgrass; [12]) | Giant foxtail plant response rating (giant foxtail; [12])
2: Rape plant response rating (rape; [12]) | Corn plant response rating (corn; [9]) | Wild oats plant response rating (0 to 10 scale) (wild oat; [14]) | Wild oats plant response rating (wild oat; [12]) | Cocklebur plant response rating (cocklebur; [13])
5: Soybean plant response rating (soybean; [5]) | Plant response rating, Soybean (soybean; [11]) | Soybean plant response rating (soybean; [12]) | Crabgrass plant response rating (crabgrass; [13]) | Blackgrass plant response rating (blackgrass; [13]) | Plant response rating, B. signalgrass (surinam grass; [8])
3: Redroot pigweed plant response rating (pigweed; [5]) | Plant response rating, Redroot pigweed (pigweed; [11]) | Sugarbeets plant response rating (sugar beet; [12]) | Plant response rating, Velvetleaf (velvetleaf; [16]) | Velvetleaf plant response rating (velvetleaf; [12]) | Plant response rating, Blackgrass (blackgrass; [7]) | Cocklebur plant response rating (cocklebur; [12]) | Giant foxtail plant response rating (giant foxtail; [5]) | Giant foxtail plant response rating (giant foxtail; [10])
7: Redroot pigweed plant response rating (pigweed; [12]) | Wild oats plant response rating (wild oat; [9]) | Blackgrass plant response rating (blackgrass; [9])
1: Redroot pigweed plant response rating (pigweed; [10]) | Sugarbeets plant response rating (sugar beet; [5]) | Plant response rating, Sugarbeets (sugar beet; [15]) | Plant response rating, Sugarbeets (sugar beet; [16]) | Plant response rating, Crabgrass (crabgrass; [8])
6: Sugarbeets plant response rating (sugar beet; [9]) | Bedstraw plant response rating (bedstraw; [12]) | Plant response rating, Blackgrass (blackgrass; [8]) | Blackgrass plant response rating (blackgrass; [12]) | B. signalgrass plant response rating (surinam grass; [9])
